Data published in PMC4036671, “Switching and emergence of CTL epitopes in HIV-1 infection” (Retrovirology, 2014).

Experiments:
[1] = system: expanded PBMCs from 46 HIV-1 patients; experiment: IFN-γ ELISpot assay using expanded PBMCs (screening of HLA-A*24:02-restricted epitopes); format: cell-based, human; details: for response rate: 46 HLA-A*24:02-positive HIV-1 patients, peptide 10^-5 M, overnight 16 to 18 h, positive >50 SFU per 10^6 cells; for peptide-specific response among patients with Nef135Y: eight patients with Nef135Y in plasma HIV RNA
Experimental: (§1) The gamma interferon enzyme-linked immunospot (IFN-γ ELISpot) assay was performed using patients’ PBMCs as previously described with some modifications. In brief, 96-well plates (Millipore) were coated with anti-gamma-interferon (IFN-γ) MAb 1-D1k (Mabtech) overnight at 4°C. Peptides were added directly to the wells at a final concentration of 10^-5 M. 5 ~ 10 × 10^4 cells were added to each well with a final volume of 100 μl of R10. For negative controls, PBMCs were incubated with R10 alone without peptides. After incubation at 37°C under 5% CO2 overnight (16 to 18 h), the plates were washed six times with phosphate-buffered saline containing 0.01% tween-20 (PBST). Biotinylated anti-IFN-γ MAb 7-B6-1 (Mabtech) was added, and was incubated for 2 hours at 37°C under 5% CO2. After washing with PBST, streptavidin-alkaline phosphatase conjugate (Mabtech) was added and the plates were kept at room temperature for 45 min. After washing with PBST, IFN-γ-producing cells were detected as dark spots after 10- to 20-min color reaction with 5-bromo-4-chloro-3-indolylphosphate and nitroblue tetrazolium by using AP Conjugate Substrate Kit (Bio-Rad). Spots were counted by KS ELISPOT compact (Carl Zeiss) and expressed as spot-forming units (SFU) per 10^6 PBMCs after subtracting the SFU of the negative control. Values with >50 SFU, >3 × mean SFU of negative control and > mean SFU of negative control + 3 SD per 10^6 input cells were considered as a positive response.
(§2) Since more cells were required for the immune response screening (Figure 1B) and functional avidity assays (Figures 4B and 6C), PBMCs were stimulated with anti-human CD3 antibody and the T cells were expanded for 2 to 3 weeks in R10/50 (BD Pharmingen). Culture media was changed to R10 two days prior to the assay date. For ex vivo IFN-γ ELISpot assay (Figures 5B and 6B), PBMCs were cultured for 6 hours in R10 media.

[2] = system: Nef126-10-specific CTL clone I30-1; experiment: Epitope recognition by CTL clone, peptide-pulsed 293FT-A24DRm-CY0 cells, IFN-γ ELISA; format: cell-based, human; details: 293FT-A24DRm-CY0 cells pulsed with serially diluted peptide (3^2 to 3^-6 μM), co-culture 18 to 24 h, three independent experiments
Experimental: (§3) The cells were washed twice with R10, then cultured with 1 × 10^6 autologous PBMCs and 4 × 10^6 irradiated (3300 rad) allogeneic PBMCs in R10. After 4 days, IL-2 was added to 50 U/ml and the cells were cultured for 2–3 weeks in R10/50. Peptide-specific CD8^+ T cells were enriched by MACS separation (Miltenyi) using tetramers. The sorted cells were cloned by limiting dilution to 3 or 10 cells/well in 96-well round-bottom tissue culture plates, and cultured with 10^5 irradiated allogeneic PBMCs in R10/50 containing 5 μg/ml PHA-L.
(§4) CTL-recognition of the epitopes was assessed by serially diluted peptides. On day 0, 293FT-A24DRm-CY0 cells were seeded onto 96-well Flat-bottom transparent plate (BD Falcon) so that the cultures become confluent on day 2. On day 2, each peptide was pulsed with concentrations from 3^2 to 3^-6 μM to the wells and incubated at 37°C under 5% CO2 for 1 h. Then CTLs (5,000 ~ 10,000 cells) were added and co-cultured at 37°C under 5% CO2 for 18 to 24 h. After the incubation, supernatants were harvested, and IFN-γ concentrations were quantified by Human IFN-γ ELISA Set (BD Bioscience). In each experiment, the IFN-γ value of samples was normalized to that of the highest wild type peptide concentration (9 μM). For example, each IFN-γ value of I30-1 CTL clone was divided by the value of the well pulsed with 9 μM Nef126-10(wt) peptide. Each assay was performed in duplicate and three independent experiments were conducted.

[3] = system: Nef134-10-specific CTL clone H27-9; experiment: as above; format: cell-based, human; details: 293FT-A24DRm-CY0 cells pulsed with serially diluted peptide (3^2 to 3^-6 μM), co-culture 18 to 24 h, three independent experiments
Experimental: as §3, §4

[4] = biological target: HLA-A*24:02 (Homo sapiens, UniProt P04439, D101N/D140Y/D185E/E176V/E190D/F33S/G103R/G107R/I119L/I121M/I306V/K335N/L105A/L180Q/L300P/N151K/N90K/Q86E/Q94H/R106L/R138H/R89G/T104I/T345S/V100E/W191G/Y123F); experiment: Peptide-HLA binding assay (T2-A24 stabilization assay); details: T2-A24 cells, 10^-4 to 10^-9 M peptide, normalized MFI (to 10^-4 M Nef134-8), three independent experiments
Experimental: Peptide binding to HLA-A*24:02 was assessed by using a T2-A24 stabilization assay as previously described. Briefly, after incubation for 16 hours at 26°C under 5% CO2, 2 × 10^5 T2-A24 cells were incubated with 10^-4 to 10^-9 M peptides for 1 h at 4°C. After keeping at 37°C under 5% CO2 for 3 hours, the cells were stained with biotinylated anti-human HLA-A9 monoclonal antibody (One Lambda), and streptavidin-APC conjugates (BD Pharmingen). The mean fluorescence intensity (MFI) was measured by FACSCalibur (Becton Dickinson). In each experiment, MFI of samples was normalized by the MFI of 10^-4 M control peptide, Nef134-8([…]). Three independent experiments were performed.

[5] = system: expanded PBMCs; experiment: Longitudinal IFN-γ ELISpot assay with serially diluted peptides in one individual; format: cell-based, human; details: one patient; for peptide-specific IFN-γ ELISpot response, latter time point: 2003/3/20, plasma virus 133T/135F
Experimental: as §1, with “In brief, 96-well plates (Millipore) were coated with anti-gamma-interferon (IFN-γ) MAb 1-D1k (Mabtech) overnight at 4°C.” left out, “Biotinylated anti-IFN-γ MAb 7-B6-1 (Mabtech) was added, and was incubated for 2 hours at 37°C under 5% CO2.” left out
as §2

[6] = system: PBMCs; experiment: Ex vivo IFN-γ ELISpot assay; format: cell-based, human; details: for correlation between magnitude of peptide-specific response and pVL: 24 IMSUT cohort patients harboring 133I/135F or 133T/135F, ex vivo IFN-γ ELISpot with frozen PBMCs, Spearman's rank correlation; for patients with peptide-specific response, plasma viruses 133T/135F: patients with 133T/135F viruses (n = 10)
Experimental: as §1, §2

[7] = system: expanded PBMCs; experiment: Functional avidity assay (IFN-γ ELISpot, limiting dilution of peptide); format: cell-based, human; details: nine individuals harboring 133T/135F, peptide 10^-5 to 10^-12 M, compared to Nef126-10(8T10F), Mann-Whitney U-test p < 0.05
Experimental: Basically, the assay was performed using the same procedure with IFN-γ ELISpot assay as described above. PBMCs were cultured for 2 to 3 weeks in R10/50 after anti-human CD3 antibody (BD Pharmingen) stimulation, and culture media were changed from R10/50 to R10 two days before use. PBMCs were incubated with peptides at concentrations from 10^-5 to 10^-12 M, and SFU was calculated. The functional avidity to peptide dilutions was determined as a 50% of sigmoidal dose (SD50) SFU.
All data visualization and statistical analyses were performed using GraphPad Prism (GraphPad Software, La Jolla, CA). Student’s t-test and Mann–Whitney U-test were used to compare the antigen presentation and functional avidity between two groups, respectively. Spearman rank correlation was used to calculate the correlation between peptide-specific response and pVL. Dose at 50% response in sigmoidal dose–response curves (SD50) was calculated by drawing sigmoidal dose–response curves. Time to mutational escape, defined as the time elapsed between estimated date of HIV-1 infection and the first appearance of a full or partial amino acid change consistent with the specific escape mutation of interest, was calculated using Kaplan-Meier (survival) methods.

| Substance | response rate [1] | IFN-γ production by CTL clone I30-1 [2] | binding to HLA-A*24:02 [4] | peptide-specific IFN-γ ELISpot response, latter time point [5] | also measured |
| --- | --- | --- | --- | --- | --- |
| KYKLKHIVW [Gag28-9, reference compound] | 40.0% | Neither clone showed specificity |  |  | IFN-γ production by CTL clone H27-9 [3]: Neither clone showed specificity |
| Nef126-10(8I10F) (NYTPGPGIRF) |  | strong responses at very low peptide concentration | dramatically improved its binding | robust responses | correlation between magnitude of peptide-specific response and pVL [6]: inversely correlated with pVL; patients with peptide-specific response, plasma viruses 133T/135F ([6]; ex vivo IFN-γ ELISpot, PBMCs): 7 of 10; functional avidity (SD50) of peptide-specific CTL responses [7]: significantly higher avidities |
| Nef126-10(8T10F): Nef126-10 peptide with threonine at 8th position (I133T) and F at position 10 (NYTPGPGTRF) |  | strong responses at very low peptide concentration | did not significantly affect epitope-HLA binding | robust responses | correlation between magnitude of peptide-specific response and pVL [6]: not; patients with peptide-specific response, plasma viruses 133I/135F ([6]; ex vivo IFN-γ ELISpot, PBMCs, patients with 133I/135F viruses (n = 4)): 0 of 4; patients with peptide-specific response, plasma viruses 133T/135F ([6]; ex vivo IFN-γ ELISpot, PBMCs): Nine out of 10 |
| Nef126-10(wt): wild-type Nef126-10 peptide with Y at the C-terminus (NYTPGPGIRY) |  | only at high concentrations | lowers the affinity | detected only at high peptide concentrations |  |
| Nef126-10: published HLA-A*24:02-restricted HIV-1 nef CTL epitope peptide, 10 amino acids from Nef126 (HXB2 numbering) (NYTPGPGVRY; UniProt P04601 126-135, looked up, fragment) | 50.0% |  |  |  | number of responders among patients harboring Nef135F ([1]; 35 patients harboring Nef135F): 23; peptide-specific response among patients with Nef135Y [1]: none of the eight patients; peptide-specific IFN-γ ELISpot response, earlier time point ([5]; 2000/9/4, plasma virus wild type around Nef126-10/Nef134-10): no Nef126-10-specific responses were observed |
| Nef134-10: published HLA-A*24:02-restricted HIV-1 nef CTL epitope peptide, 10 amino acids from Nef134 (HXB2 numbering) (RYPLTFGWCY; UniProt P04601 134-143, looked up, fragment) | 80.4% |  |  | decreased but remained detectable | number of responders among patients harboring Nef135F ([1]; 35 patients harboring Nef135F): 28; response rate among patients harboring Nef135F ([1]; 35 patients harboring Nef135F): 80.0%; peptide-specific response among patients with Nef135Y [1]: all of them |
| VPLDKDFRKY [reference compound] |  |  | might not bind to HLA-A*24:02 |  |  |
